The structures appear in SMILES notation. pEC50: −log10 of the molar value. Bounds are passed on as bounds.

For the experiment, the system named is HCV replicon. The experiment can be described thus: Replicon based assay of HCV replication inhibition (NPT ELISA). It counts as cell-based, Hepatitis C virus. The following applies: Hepatitis C virus, Huh-7, 72 h, Table I; Huh-7 HCV replicon-containing cells, three days; read-out: Activity. On the procedure: Compounds claimed herein are tested for the ability to inhibit viral replication of the Hepatitis C replicon in cultured cells in which the HCV replicon construct has been incorporated. The HCV replicon system was described by Bartenschlager, et. al (Science, 285, pp. 110-113 (1999)). The replicon system is predictive of in vivo anti-HCV activity; compounds that are active in humans uniformly evidence activity in the replicon assay.
In this assay HCV replicon containing cells are treated with different concentrations of the test compound to ascertain the ability of the test compound to suppress replication of the HCV replicon. As a positive control, HCV replicon-containing cells are treated with different concentrations of interferon alpha, a known inhibitor of HCV replication. The replicon assay system includes Neomycin Phosphotransferase (NPT) as a component of the replicon itself in order to detect the transcription of replicon gene products in the host cell. Cells in which the HCV replicon is actively replicating have high levels of NPT; the level of NPT is proportional to HCV replication. […] The NPT level of each sample is measured using a captured ELISA.
A protocol for testing compounds for the ability to inhibit viral replication of the Hepatitis C replicon cultured cells in which the replicon construct has been incorporated, follows.
The HCV replicon contains, 5′-3′, the HCV-IRES, the neomycin phosphotransferase (neo) gene, the IRES of encephalomyocarditis virus, which directs translation of HCV sequences NS3 to NS5B, and the 3′-NTR. The sequence of the HCV replicon has been deposited in GenBank (Accession no. AJ242652).
The replicon is transfected into Huh-7 cells using standard methods such as electroporation.
The equipment and materials include, but are not limited to, Huh-7 HCV replicon-containing cells, maintenance media (DMEM (Dulbecco's modified Eagle media) supplemented with 10% FBS, L-glutamine, non-essential amino acids, penicillin (100 units/ml), streptomycin (100 micrograms/ml), and 500 micrograms/ml of Geneticin (G418), screening media (DMEM supplemented with 10% FBS, L-glutamine, non-essential amino acids, penicillin (100 units/ml) and streptomycin (100 micrograms/ml)), 96 well tissue culture plates (flat bottom), 96 well plates (U bottom for drug dilution), Interferon alpha for positive control, fixation reagent (such as methanol: acetone), primary antibody (rabbit anti-NPTII), secondary antibody: Eu-N1l, and enhancement solution.
The cells are then seeded onto 96-well plates at a density of 6000-7500 cells/100 microliters/well (6-7.5×10^5 cells/10 ml/plate). The plates are then incubated at 37° C. in a 5% CO2 incubator.
HCV replicon-containing cells are rinsed with once PBS once; 2 mls of trypsin are then added. Cells are incubated at 37° C. in a 5% CO2 incubator for 3-5 minutes. 10 mls of complete medium is added to stop the reaction. Cells are blown gently, put into a 15 ml tube, and spun at 1200 rpm for four minutes. The trypsin/medium solution is removed and 5 mls of medium (500 ml DMEM (high glucose)) from BRL catalog #12430-054; 50 mls 10% FBS, 5% Geneticin G418 (50 mg/ml, BRL catalog #10131-035), 5 ml MEM non-essential amino acids (100×BRL #11140-050) and 5 ml pen-strep (BRL # 15140-148) is added. The cells and media are mixed carefully
Cells are plated with screening medium (500 ml DMEM (BRL #21063-029), 50 ml FBS (BRL #10082-147) and 5 ml MEM non-essential amino acid (BRL #11140-050) at 6000-7500 cells/100 μl/well of 96 well plate (6-7.5×10^5 cells/10 ml/plate). Plates are placed into 37° C. 5% CO2 incubator overnight.
The following morning, drugs (test compounds or interferon alpha) are diluted in 96 well U bottom plates with media or DMSO/media, depending on the final concentration chosen for screening. Generally for 6 concentrations of each test compounds ranging from 10 micromolar to 0.03 micromolar are applied. […]
Background: In antiviral work, replicon cells carry a viral genome segment that copies itself.
Take `c1ccc(-c2ccc(CNc3nc(-c4cccnc4)cs3)cc2)cc1` [compound 78, N-(4-phenyl-benzyl)-4-(pyridin-3-yl)thiazol-2-amine]: the pEC50 was less than 5.00. Next, `c1ccc(-c2cccc(CNc3nc(-c4cccnc4)cs3)c2)cc1` [compound 79, N-(3-phenyl-benzyl)-4-(pyridin-3-yl)thiazol-2-amine]: less than 5.00; `c1ccc(Oc2ccc(CNc3nc(-c4cccnc4)cs3)cc2)cc1` [compound 80, N-(4-phenoxybenzyl)-4-(pyridin-3-yl)thiazol-2-amine]: less than 5.00.

As for `CCCCOc1ccc(CNc2nc(-c3cccnc3)cs2)cc1` [compound 81, N-(4-butoxybenzyl)-4-(pyridin-3-yl)thiazol-2-amine], the pEC50 is less than 5.00. The figure for `CCCCc1ccc(CNc2nc(-c3cccnc3)cs2)cc1` [compound 82, N-(4-butylbenzyl)-4-(pyridin-3-yl)thiazol-2-amine] is less than 5.00.

On to `c1ccc(Oc2cccc(CCNc3nc(-c4cccnc4)cs3)c2)cc1` [compound 83, N-(3-phenoxyphenethyl)-4-(pyridin-3-yl)thiazol-2-amine], for which the pEC50 is less than 5.00.

Take `c1ccc(Oc2ccc(CCNc3nc(-c4cccnc4)cs3)cc2)cc1` [compound 84, N-(4-phenoxyphenethyl)-4-(pyridin-3-yl)thiazol-2-amine]: the pEC50 was less than 5.00. As to `CCCCCOc1ccc(Nc2nc(-c3cccnc3)cs2)cc1` [compound 85, N-(4-(pentyloxy)phenyl)-4-(pyridin-3-yl)thiazol-2-amine], the pEC50 was more than 6.00. The figure for `CCCCCc1ccc(Nc2nc(-c3cccnc3)cs2)cc1` [compound 86, N-(4-pentylphenyl)-4-(pyridin-3-yl)thiazol-2-amine] is more than 6.00.

On to `c1ccc(COc2cccc(Nc3nc(-c4cccnc4)cs3)c2)cc1` [compound 87, N-(3-(benzyloxy)phenyl)-4-(pyridin-3-yl)thiazol-2-amine], for which the pEC50 was more than 6.00. Next, `c1ccc(Oc2cccc(Nc3nc(-c4cccnc4)cs3)c2)cc1` [compound 88, N-(3-phenoxyphenyl)-4-(pyridin-3-yl)thiazol-2-amine]: more than 6.00; `c1ccc(CCOc2cccc(Nc3nc(-c4cccnc4)cs3)c2)cc1` [compound 89]: more than 6.00; `CCCCCCOc1ccc(Nc2nc(-c3cccnc3)cs2)cc1` [compound 90, N-(4-(hexyloxy)phenyl)-4-(pyridin-3-yl)thiazol-2-amine]: more than 6.00.

On to `CCCCOc1ccc(Nc2nc(-c3cccnc3)cs2)cc1` [compound 91, N-(4-butoxyphenyl)-4-(pyridin-3-yl)thiazol-2-amine], for which the pEC50 was more than 6.00.

`CCCCCCCOc1ccc(Nc2nc(-c3cccnc3)cs2)cc1` [compound 92, N-(4-(heptyloxy)phenyl)-4-(pyridin-3-yl)thiazol-2-amine]: the pEC50 is more than 6.00. As to `CCCCCCCCOc1ccc(Nc2nc(-c3cccnc3)cs2)cc1` [compound 93, N-(4-(octyloxy)phenyl)-4-(pyridin-3-yl)thiazol-2-amine], the pEC50 is more than 6.00. The figure for `CCCCCCCCc1ccc(Nc2nc(-c3cccnc3)cs2)cc1` [compound 95, N-(4-octylphenyl)-4-(pyridin-3-yl)thiazol-2-amine] is more than 6.00; for `CCCCc1ccc(Nc2nc(-c3cccnc3)cs2)cc1` [compound 96, N-(4-butylphenyl)-4-(pyridin-3-yl)thiazol-2-amine] it is 5.00 to 6.00. The figure for `c1ccc(Cc2cccc(Nc3nc(-c4cccnc4)cs3)c2)cc1` [compound 97, N-(3-benzylphenyl)-4-(pyridin-3-yl)thiazol-2-amine] is more than 6.00. Next, `N#CCc1ccc(Nc2nc(-c3cccnc3)cs2)cc1` [compound 98, 2-(4-(4-(pyridin-3-yl)thiazol-2-ylamino)phenyl)acetonitrile]: less than 5.00; `c1cncc(-c2csc(Nc3ccc(N4CCOCC4)cc3)n2)c1` [compound 99, N-(4-morpholinophenyl)-4-(pyridin-3-yl)thiazol-2-amine]: less than 5.00. For the compound `c1cncc(-c2csc(Nc3ccc(C4CCCCC4)cc3)n2)c1` [compound 100, N-(4-cyclohexylphenyl)-4-(pyridin-3-yl)thiazol-2-amine], the pEC50 is more than 6.00. The figure for `c1cncc(-c2csc(Nc3ccc(N4CCCCC4)cc3)n2)c1` [compound 101, N-(4-(piperidin-1-yl)phenyl)-4-(pyridin-3-yl)thiazol-2-amine] is less than 5.00. The figure for `c1cncc(-c2csc(Nc3ccc(-c4csnn4)cc3)n2)c1` [compound 102, N-(4-(1,2,3-thiadiazol-4-yl)phenyl)-4-(pyridin-3-yl)thiazol-2-amine] is less than 5.00; for `c1cncc(-c2csc(Nc3ccc(-n4ccnc4)cc3)n2)c1` [compound 103, N-(4-(1H-imidazol-1-yl)phenyl)-4-(pyridin-3-yl)thiazol-2-amine] it is less than 5.00; for `c1cncc(-c2csc(Nc3ccc4c(c3)Cc3ccccc3-4)n2)c1` [compound 104, N-(9H-fluoren-7-yl)-4-(pyridin-3-yl)thiazol-2-amine] it is 5.00 to 6.00. Next, `Cc1nccc(-c2cccc(Nc3nc(-c4cccnc4)cs3)c2)n1` [compound 105, N-(3-(2-methylpyrimidin-4-yl)phenyl)-4-(pyridin-3-yl)thiazol-2-amine]: less than 5.00. For `CC(C)N(c1ccccc1)c1ccc(Nc2nc(-c3cccnc3)cs2)cc1` [compound 106, N1-isopropyl-N1-phenyl-N4-(4-(pyridin-3-yl)thiazol-2-yl)benzene-1,4-diamine], the pEC50 is less than 5.00.

As for `CCCCOC(=O)c1ccc(Nc2nc(-c3cccnc3)cs2)cc1` [compound 107, butyl 4-(4-(pyridin-3-yl)thiazol-2-ylamino)benzoate], the pEC50 is less than 5.00. Next, `CCOC(=O)C1CCN(Cc2cccc(Nc3nc(-c4cccnc4)cs3)c2)CC1` [compound 108, ethyl 1-(3-(4-(pyridin-3-yl)thiazol-2-ylamino)benzyl)piperidine-4-carboxylate]: less than 5.00.

For the compound `CCOC(=O)Cc1ccc(Nc2nc(-c3cccnc3)cs2)cc1` [compound 109, ethyl 2-(4-(4-(pyridin-3-yl)thiazol-2-ylamino)phenyl)acetate], the pEC50 was less than 5.00.

For the compound `CCCc1ccc(Nc2nc(-c3cccnc3)cs2)cc1` [compound 110, N-(4-propylphenyl)-4-(pyridin-3-yl)thiazol-2-amine], the pEC50 is less than 5.00. Consider `CC(C)(C)c1ccc(NC(=O)c2nc(-c3cccnc3)cs2)cc1` [compound 111, N-(4-tert-butylphenyl)-4-(pyridin-3-yl)thiazole-2-carboxamide], for which the pEC50 was less than 5.00. The figure for `CCCCCOc1ccc(NC(=O)c2nc(-c3cccnc3)cs2)cc1C(F)(F)F` [compound 112, N-(3-(trifluoromethyl)-4-(pentyloxy)phenyl)-4-(pyridin-3-yl)thiazole-2-carboxamide] is less than 5.00. The figure for `CCCCCOc1ccc(NC(=O)c2nc(-c3cccnc3)cs2)cc1` [compound 113, N-(4-(pentyloxy)phenyl)-4-(pyridin-3-yl)thiazole-2-carboxamide] is less than 5.00; for `O=C(Nc1ccc(OCc2ccccc2)cc1)c1nc(-c2cccnc2)cs1` [compound 114] it is less than 5.00; for `O=C(Nc1ccc(Oc2ccc(Cl)cc2)cc1)c1nc(-c2cccnc2)cs1` [compound 115, N-(4-(4-chlorophenoxy)phenyl)-4-(pyridin-3-yl)thiazole-2-carboxamide] it is less than 5.00.

For the origin of these results see US8088806B2 (Achillion Pharmaceuticals, Inc., priority 2005, dated 2012).
